The subject of the experiment is pyramidal cells of hippocampal slice. Briefly: Penicilline-induced "epileptic" hippocampal slice preparation. The experiment is classed as cell-based. Conditions: concentration of 6 μM. As for the experimental part: The GABAB antagonists of the present invention interact at the GABAB receptor with IC50 values starting from about 10^-7 M (moles/liter) in rat brain cortex membranes. […] The antagonism against baclofen has also been shown in in vitro electrophysiological models, such as the penicilline-induced "epileptic" hippocampal slice preparation, where baclofen, at a concentration of 6 μM inhibits "epileptic"-like discharges of pyramidal cells. The compounds of the invention antagonise the effects of baclofen at concentrations from approximately 10 to approximately 100 μM. In vivo, antagonism has been shown by ionophoresis of baclofen on rat cerebral cortex, and systemic application of antagonists in doses of 10-100 mg/kg. The muscle relaxant effects of baclofen measured in the rotarod model are also antagonized at doses of about 30 mg/kg ip.

As to `NCC(CC(=O)O)c1ccc(Cl)cc1` (stereo not shown) [baclofen], the “inhibition of "epileptic"-like discharges of pyramidal cells” value is listed as “inhibits”.

For the origin of these results see patent publication US5300679A, “Substituted propane-phosphinic acid compounds” (Ciba-Geigy Corporation, priority 1987, dated 1994).
